What was measured:
ERRα = molecular target: T1, ERRα (Homo sapiens, UniProt P11474); assay: TR-FRET (LanthaScreen) ERRα binding assay; details: maximum concentration tested 10 μM
T1 construct: purchased Life Technologies
T1 sequence (P11474 193-421 limits assumed): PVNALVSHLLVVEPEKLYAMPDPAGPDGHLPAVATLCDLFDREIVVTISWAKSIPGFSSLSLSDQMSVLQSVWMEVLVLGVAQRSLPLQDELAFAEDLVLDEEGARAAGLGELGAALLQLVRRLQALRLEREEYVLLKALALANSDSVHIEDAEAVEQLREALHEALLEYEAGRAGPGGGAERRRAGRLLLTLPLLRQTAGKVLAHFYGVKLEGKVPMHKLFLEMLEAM
Method: (§1) ERRγ binding assay was conducted with Lantascreen assay system (Life Technologies, Grand Island, NY, USA), which was based on TR-FRET, followed by manufacturer’s instruction. Briefly, compounds were serially diluted with 2-fold staring from 10 μM and 10 μL of each diluent was added in 384 well plate. Then, GST-conjugated ERRγ LBD (ligand-binding domain) was added to be 5 nM. Next, the mixture of fluorescien-conjugated coactivator PGC1a (final concentration to be 500 nM) and Tb-a-GST antibody (final concentration to be 5 nM) was added. The reaction mixture was incubated at rt in dark state for 1 h.
(§2) ERRs and ERα binding assay used same assay system as ERRγ’s, Lanthascreen assay system. Therefore, procedure was same as ERRγ binding assay except tested enzymes (ERRα, ERRβ, ERα). Used reference compounds were 4-OHT 1 for ERα and ERRβ binding assay, and XCT790 for ERRα binding assay.

ERRβ = molecular target: T2, ERRβ (Homo sapiens, UniProt O95718); assay: TR-FRET (LanthaScreen) ERRβ binding assay; details: maximum concentration tested 10 μM
T2 construct: purchased Life Technologies
T2 sequence (O95718 208-432 limits assumed): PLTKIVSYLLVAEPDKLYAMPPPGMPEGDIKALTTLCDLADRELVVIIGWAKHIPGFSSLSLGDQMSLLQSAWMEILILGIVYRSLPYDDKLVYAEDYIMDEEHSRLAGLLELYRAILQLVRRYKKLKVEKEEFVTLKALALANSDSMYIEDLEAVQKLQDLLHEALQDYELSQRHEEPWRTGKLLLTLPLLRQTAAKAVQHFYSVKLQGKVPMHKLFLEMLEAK
Method: as §1, §2

CYP1A2 = molecular target: T3, CYP1A2 (Homo sapiens, UniProt P05177); assay: CYP inhibition assay, cocktail, human liver microsomes (phenacetin O-deethylase); assay type: in vitro ADME; details: 10 μM, activity in presence of inhibitor as % of control
T3 sequence (P05177 1-516): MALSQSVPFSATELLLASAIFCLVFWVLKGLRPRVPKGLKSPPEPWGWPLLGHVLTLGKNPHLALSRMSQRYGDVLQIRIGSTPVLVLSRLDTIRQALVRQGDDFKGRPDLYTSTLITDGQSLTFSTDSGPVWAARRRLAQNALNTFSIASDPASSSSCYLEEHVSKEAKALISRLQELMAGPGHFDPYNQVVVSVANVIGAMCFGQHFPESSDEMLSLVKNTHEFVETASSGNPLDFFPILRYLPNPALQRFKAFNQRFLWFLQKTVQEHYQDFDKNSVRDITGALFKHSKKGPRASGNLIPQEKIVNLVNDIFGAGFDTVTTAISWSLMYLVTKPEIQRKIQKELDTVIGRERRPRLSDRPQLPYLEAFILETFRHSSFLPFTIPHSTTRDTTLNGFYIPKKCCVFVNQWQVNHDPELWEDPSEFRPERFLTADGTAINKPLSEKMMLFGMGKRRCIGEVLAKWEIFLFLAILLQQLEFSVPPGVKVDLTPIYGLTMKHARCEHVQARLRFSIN

CYP2D6 = CYP2D6 (Homo sapiens, UniProt P10635); assay: CYP inhibition assay, cocktail, human liver microsomes (dextromethorphan O-demethylase); assay type: in vitro ADME; details: 10 μM, activity in presence of inhibitor as % of control
Sequence of CYP2D6 (P10635 whole entry): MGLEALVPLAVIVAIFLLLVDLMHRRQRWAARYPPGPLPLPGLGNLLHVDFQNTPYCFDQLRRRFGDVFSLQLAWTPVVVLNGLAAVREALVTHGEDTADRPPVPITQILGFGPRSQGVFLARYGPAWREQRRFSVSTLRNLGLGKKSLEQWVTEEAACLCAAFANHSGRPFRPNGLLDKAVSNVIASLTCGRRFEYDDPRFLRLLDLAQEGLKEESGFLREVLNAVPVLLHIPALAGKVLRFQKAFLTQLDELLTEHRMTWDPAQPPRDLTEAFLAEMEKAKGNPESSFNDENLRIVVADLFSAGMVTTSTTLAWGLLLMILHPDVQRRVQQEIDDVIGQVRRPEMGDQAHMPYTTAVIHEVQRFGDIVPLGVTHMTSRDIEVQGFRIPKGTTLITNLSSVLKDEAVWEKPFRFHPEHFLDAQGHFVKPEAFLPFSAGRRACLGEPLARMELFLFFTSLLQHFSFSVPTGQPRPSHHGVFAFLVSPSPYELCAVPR

CYP2C19 = CYP2C19 (Homo sapiens, UniProt P33261); assay: CYP inhibition assay, cocktail, human liver microsomes (S-mephenytoin 4-hydroxylase); assay type: in vitro ADME; details: 10 μM, activity in presence of inhibitor as % of control
Sequence of CYP2C19 (P33261 whole entry): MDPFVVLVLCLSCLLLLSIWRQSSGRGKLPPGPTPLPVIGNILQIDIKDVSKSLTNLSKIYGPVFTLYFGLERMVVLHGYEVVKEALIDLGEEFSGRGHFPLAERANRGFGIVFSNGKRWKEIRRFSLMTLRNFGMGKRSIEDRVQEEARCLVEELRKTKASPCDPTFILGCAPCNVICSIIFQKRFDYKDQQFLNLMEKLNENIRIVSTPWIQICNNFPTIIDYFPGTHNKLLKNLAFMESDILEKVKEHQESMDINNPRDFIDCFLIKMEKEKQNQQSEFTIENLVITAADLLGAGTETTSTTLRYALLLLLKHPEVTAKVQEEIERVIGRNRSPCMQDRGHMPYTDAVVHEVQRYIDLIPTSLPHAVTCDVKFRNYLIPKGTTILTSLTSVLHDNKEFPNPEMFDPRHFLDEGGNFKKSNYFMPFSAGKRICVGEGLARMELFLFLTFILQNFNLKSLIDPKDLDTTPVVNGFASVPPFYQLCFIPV

CYP3A = assay: CYP inhibition assay, cocktail, human liver microsomes (midazolam 1'-hydroxylase); assay type: in vitro ADME; details: 10 μM, activity in presence of inhibitor as % of control
hERG channel = hERG channel (Homo sapiens, UniProt Q12809); assay: hERG channel binding assay (predictor hERG fluorescence polarization)
Sequence of hERG channel (Q12809 whole entry): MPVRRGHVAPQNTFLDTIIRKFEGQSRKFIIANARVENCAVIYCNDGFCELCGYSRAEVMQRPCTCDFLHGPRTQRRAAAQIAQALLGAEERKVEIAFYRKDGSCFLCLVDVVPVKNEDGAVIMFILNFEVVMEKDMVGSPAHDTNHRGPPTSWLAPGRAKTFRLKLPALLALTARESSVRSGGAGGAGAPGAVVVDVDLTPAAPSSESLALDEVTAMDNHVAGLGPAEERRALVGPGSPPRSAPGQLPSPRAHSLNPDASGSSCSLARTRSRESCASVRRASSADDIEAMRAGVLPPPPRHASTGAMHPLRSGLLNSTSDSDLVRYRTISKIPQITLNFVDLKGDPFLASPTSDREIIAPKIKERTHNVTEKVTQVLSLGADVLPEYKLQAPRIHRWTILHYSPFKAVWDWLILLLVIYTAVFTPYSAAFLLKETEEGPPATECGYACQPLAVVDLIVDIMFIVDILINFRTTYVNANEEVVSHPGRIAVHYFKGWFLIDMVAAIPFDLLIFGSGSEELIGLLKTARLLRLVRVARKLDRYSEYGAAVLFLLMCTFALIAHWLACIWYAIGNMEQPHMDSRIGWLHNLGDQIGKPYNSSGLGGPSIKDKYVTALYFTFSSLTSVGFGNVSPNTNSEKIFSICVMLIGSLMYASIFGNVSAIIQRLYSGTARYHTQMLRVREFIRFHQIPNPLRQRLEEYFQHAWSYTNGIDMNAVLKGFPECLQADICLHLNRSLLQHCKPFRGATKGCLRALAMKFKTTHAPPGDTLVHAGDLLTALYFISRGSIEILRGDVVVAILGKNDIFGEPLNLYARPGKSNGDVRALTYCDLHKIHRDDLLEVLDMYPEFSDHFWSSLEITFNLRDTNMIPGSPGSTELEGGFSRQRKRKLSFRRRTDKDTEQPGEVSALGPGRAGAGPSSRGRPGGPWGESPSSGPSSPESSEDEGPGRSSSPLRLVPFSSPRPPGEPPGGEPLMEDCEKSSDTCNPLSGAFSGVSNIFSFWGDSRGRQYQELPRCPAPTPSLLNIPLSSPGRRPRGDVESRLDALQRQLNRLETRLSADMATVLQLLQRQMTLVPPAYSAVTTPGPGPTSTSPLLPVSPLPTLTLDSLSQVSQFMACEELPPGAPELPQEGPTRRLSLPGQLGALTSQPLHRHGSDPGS
Method: hERG channel binding assay was performed using predictor hERG fluorescence polarization assay (Cat.No. PV5365, Invitrogen, Grand Island, NY, USA) according to the manufacturer’s instructions. […] Fluorescence intensity (Excitation at 530 nm, Emission at 590 nm) was measured using a multi-mode microplate reader Synergy Neo (Biotek, Winooski, VT, USA).

ERα = molecular target: T4, ERα (Homo sapiens, UniProt P03372); assay: TR-FRET (LanthaScreen) ERα binding assay; details: maximum concentration tested 10 μM
T4 construct: purchased Life Technologies
T4 sequence (P03372 311-547 limits assumed): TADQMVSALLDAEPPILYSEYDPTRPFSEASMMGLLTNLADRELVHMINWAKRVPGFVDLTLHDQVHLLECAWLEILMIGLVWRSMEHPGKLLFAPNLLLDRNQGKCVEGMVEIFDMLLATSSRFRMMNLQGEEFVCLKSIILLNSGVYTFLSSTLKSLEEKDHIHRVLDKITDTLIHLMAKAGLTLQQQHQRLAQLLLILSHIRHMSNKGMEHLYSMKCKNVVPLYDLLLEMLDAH
Method: as §1, §2

ERRγ [1] = molecular target: T5, ERRγ (Homo sapiens, UniProt P62508); assay: ERRγ functional assay: GAL4-ERRγ luciferase reporter gene in AD293 cells; assay type: cell-based
T5 sequence (P62508 233-458 limits assumed): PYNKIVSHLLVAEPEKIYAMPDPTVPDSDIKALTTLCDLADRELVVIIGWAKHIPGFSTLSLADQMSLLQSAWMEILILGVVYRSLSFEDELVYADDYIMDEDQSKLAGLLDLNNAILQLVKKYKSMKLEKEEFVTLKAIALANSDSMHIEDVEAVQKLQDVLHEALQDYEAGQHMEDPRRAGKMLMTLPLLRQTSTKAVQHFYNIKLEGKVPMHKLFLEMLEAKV
Method: Along with the binding assay campaign, functional activity was determined in order to validate the utility of the binding affinity in a cellular context as described in the Experimental.
Figure 2 Cell based reporter-gene assay screening of 16 analogs ERRγ binding activity in cell was measured by luciferase activity using co-transfection system with GAL4-ERRγ and pFR-luciferase reporter gene.
AD293 cells were cultured in Dulbecco’ modified Eagle medium (DMEM) High glucose supplemented with 0.5% FBS (Hyclone, Logan, UT, USA). After 24 h, culture media was changed with DMEM High glucose containing 10% FBS. DNA constructs, which includes pCMX-Gal4-ERRγ, pFR-luciferase reporter plasmid, pCMV-β-gal were transiently transfected into AD293 cells using TransIT-LT1 transfection reagent (Mirus, Madison, WI, USA) for 24 h. Then, transfected cells were treated with compounds for 24 h and harvested for detection of luciferase activity and β-gal activity. All cells were incubated at 37 °C under 5% CO2 in a humidified incubator [5].

ERRγ [2] = molecular target: T6, ERRγ (Homo sapiens, UniProt P62508); assay: TR-FRET (LanthaScreen) ERRγ binding assay; details: Table 1 screening; 2-fold serial dilution from 10 μM; read-out: ERRγ, IC50 (binding inhibition of ERRγ binding activity)
T6 construct: purchased Life Technologies
T6 sequence (P62508 233-457 limits assumed): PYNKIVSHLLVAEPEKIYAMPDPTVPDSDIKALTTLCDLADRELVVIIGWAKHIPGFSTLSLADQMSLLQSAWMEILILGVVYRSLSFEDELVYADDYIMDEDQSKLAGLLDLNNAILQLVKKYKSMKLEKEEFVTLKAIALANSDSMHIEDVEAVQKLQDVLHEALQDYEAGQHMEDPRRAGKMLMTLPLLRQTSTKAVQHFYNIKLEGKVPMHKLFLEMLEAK
Method: Initials creening was conducted using a well established TR-FRET based ERRγ binding assay as described in the Experimental section at a concentration of 10 μM. Serial dilutions of the synthesized compounds were used to calculate IC50 values for the binding affinity with ERRγ.
as §1

CYP2C9 = CYP2C9 (Homo sapiens, UniProt P11712); assay: CYP inhibition assay, cocktail, human liver microsomes (tolbutamide 4-hydroxylase); assay type: in vitro ADME
Sequence of CYP2C9 (P11712 whole entry): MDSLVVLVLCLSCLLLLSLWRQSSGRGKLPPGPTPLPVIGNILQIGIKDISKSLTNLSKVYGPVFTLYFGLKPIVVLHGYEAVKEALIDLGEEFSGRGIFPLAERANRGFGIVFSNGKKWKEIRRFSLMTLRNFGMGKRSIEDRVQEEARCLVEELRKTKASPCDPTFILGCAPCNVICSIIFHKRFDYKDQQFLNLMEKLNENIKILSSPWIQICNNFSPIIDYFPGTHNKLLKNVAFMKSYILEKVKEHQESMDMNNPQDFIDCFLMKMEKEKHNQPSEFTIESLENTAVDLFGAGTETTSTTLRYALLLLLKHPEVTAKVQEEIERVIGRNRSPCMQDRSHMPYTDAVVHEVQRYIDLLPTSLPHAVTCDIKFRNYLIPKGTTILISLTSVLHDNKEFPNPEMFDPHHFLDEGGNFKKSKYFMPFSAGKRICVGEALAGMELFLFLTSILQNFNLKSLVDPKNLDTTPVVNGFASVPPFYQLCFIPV

CN(C)CCOc1ccc(/C(=C(/CCCO)c2ccc3cnn(C)c3c2)c2ccc(O)cc2)cc1 [Compound 15g, (Z)-4-(1-(4-(2-(Dimethylamino)ethoxy)phenyl)-5-hydroxy-2-(1-methyl-1H-indazol-6-yl)pent-1-en-1-yl)phenol] was tested, and the “Binding Assay, IC50, ERRα” value (ERRα) was “no observable affinity”, the IC50 (ERRα) was greater than 10 µM and the “Binding Assay, IC50, ERRβ” value (ERRβ) was “no observable affinity”. The IC50 (ERRβ) was greater than 10 µM, the “CYP Inhibition (% of Control), 1A2” value (CYP1A2) was >100 % of Control and the “CYP Inhibition (% of Control), 2D6” value (CYP2D6) was 99 % of Control. For the same compound, the “CYP Inhibition (% of Control), 2C19” value (CYP2C19) was 95 % of Control, the “CYP Inhibition (% of Control), 3A4” value (CYP3A) was 88 % of Control and the IC50 (hERG channel) was greater than 30 µM. For the same compound, the IC50 (ERα) was greater than 10 µM, the “ERRγ Functional Assay at 10 μM (% of Control)” value (ERRγ [1]; 10 μM, AD293 cells, 24 h treatment, luciferase activity) was 5.4 % of Control and the “ERRγ functional activity in the cellular system (in words)” value (ERRγ [1]; 10 μM, reporter-gene assay, compared with control ligand 4) was “comparable regression of the ERRγ transcriptional activity”. For the same compound, the inhibition at 10 µM (ERRγ [1]; AD293, 24 h, screening concentration of 10 μM, read-out: transcriptional repression) was 95%, the IC50 (ERRγ [2]) was 0.44 µM and the “CYP Inhibition (% of Control), 2C9” value (CYP2C9; 10 μM, human liver microsomes, activity in presence of inhibitor as % of control) was 83 % of Control. For the same compound, the “inhibition of the CYP 2C9 subtype” value (CYP2C9; at a concentration of 10 μM) was 17%.

Reference: PMC6273807, “Identification of Selective ERRγ Inverse Agonists” (Molecules, 2016)
